Key:
PKA = PKA activation (VASP phosphorylation, western blot) in U2OS-EPAC1 cells; type: cell-based; conditions: 100 µM test compound, FIG. 5
Procedure: FIG. 5. PKA activation results of representative newly discovered EPAC1 agonists. U2OS cells stably transfected with EPAC1 were treated with 100 µM of test compounds, cyclic nucleotide EPAC1 agonist 2 or 10 µM of forskolin and rolipram (F/R), cyclic AMP elevating agents, as a positive control. Active, phosphorylated VASP (P-VASP) was visualized using a phospho-specific, anti-VASP antibody. None of the test compounds promoted VASP phosphorylation in cells.
PKA and GPCR Selectivity. To investigate the EPAC selectivity of these EPAC agonists, compounds 25g, 25n and 25q were selected for further PKA activation studies, and the results are shown in FIG. 5. PKA activation was assessed by monitoring phosphorylation state of a downstream PKA effector, vasodilator-stimulated phosphoprotein (VASP).
(§1) SDS-PAGE and Western Blotting. Samples were prepared by mixing equal volumes of cell lysate and 2x SDS sample loading buffer and denaturing for 5 min at 95° C., unless indicated otherwise. Protein samples were separated by SDS-PAGE on 10% (v/v) polyacrylamide gels, for EPAC1 and VASP, or on 12.5% (v/v), for Rap1, and then transferred to nitrocellulose membranes. Membranes were then blocked for 1 h at room temperature in 5% (w/v) non-fat dry milk or 5% (w/v) BSA in Tris-buffered saline containing 0.1% (v/v) Tween 20, followed by an overnight incubation with primary antibody diluted in blocking buffer at 4° C. Subsequently, the membranes were incubated with appropriate horseradish peroxidase-conjugated secondary antibodies for 1 h at room temperature. For signal detection the SuperSignal West Pico PLUS Chemiluminescent Substrate (Thermo Scientific) was used. Images were acquired using the Fusion FX7 camera platform (Vilber). Densitometry was performed with ImageJ.

EPAC1-CNBD = biological target: T1, EPAC1-CNBD (Homo sapiens, UniProt O95398); assay: 8-NBD-cAMP competition binding assay, EPAC1-CNBD; conditions: for RFI (%) (relative fluorescence intensity), Table 4 / RFI (%) (relative fluorescence intensity), Table 3 / RFI (%) (relative fluorescence intensity), Table 1: compound 10 µM, EPAC1-CNBD 0.8 µM, 8-NBD-cAMP 62.5 nM, mean ± SEM, lower RFI = stronger binding; for IC50 values as EPAC1 binders (in words): summary statement; for EPAC1 binding potency / affinity in words: SAR comment on RFI, mostly relative to 3 or 9a
T1 sequence (O95398 169-318 isoform O95398-3): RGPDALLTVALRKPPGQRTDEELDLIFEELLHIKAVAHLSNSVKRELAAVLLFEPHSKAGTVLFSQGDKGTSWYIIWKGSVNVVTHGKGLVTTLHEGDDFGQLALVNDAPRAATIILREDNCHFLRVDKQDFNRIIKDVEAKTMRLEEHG

EPAC1 [1] = biological target: T2, EPAC1 (Homo sapiens, UniProt O95398); assay: Active Rap1 pull-down in U2OS cells stably transfected with EPAC1; type: cell-based; design: expressed in transfected cells; host or cells: U2OS cells (from Professor Holger Rehmann, University of Utrecht); conditions: for selectivity: ability to activate EPAC1 over EPAC2 (ratio of EPAC1 to EPAC2 activation): densitometry of Rap1-GTP immunoblots, U2OS-EPAC1 vs U2OS-EPAC2, FIG. 8; for Rap1 activation in EPAC1 cells: U2OS-EPAC1, 100 µM compound, 10 min, FIG. 7
T2 sequence (O95398 1-923): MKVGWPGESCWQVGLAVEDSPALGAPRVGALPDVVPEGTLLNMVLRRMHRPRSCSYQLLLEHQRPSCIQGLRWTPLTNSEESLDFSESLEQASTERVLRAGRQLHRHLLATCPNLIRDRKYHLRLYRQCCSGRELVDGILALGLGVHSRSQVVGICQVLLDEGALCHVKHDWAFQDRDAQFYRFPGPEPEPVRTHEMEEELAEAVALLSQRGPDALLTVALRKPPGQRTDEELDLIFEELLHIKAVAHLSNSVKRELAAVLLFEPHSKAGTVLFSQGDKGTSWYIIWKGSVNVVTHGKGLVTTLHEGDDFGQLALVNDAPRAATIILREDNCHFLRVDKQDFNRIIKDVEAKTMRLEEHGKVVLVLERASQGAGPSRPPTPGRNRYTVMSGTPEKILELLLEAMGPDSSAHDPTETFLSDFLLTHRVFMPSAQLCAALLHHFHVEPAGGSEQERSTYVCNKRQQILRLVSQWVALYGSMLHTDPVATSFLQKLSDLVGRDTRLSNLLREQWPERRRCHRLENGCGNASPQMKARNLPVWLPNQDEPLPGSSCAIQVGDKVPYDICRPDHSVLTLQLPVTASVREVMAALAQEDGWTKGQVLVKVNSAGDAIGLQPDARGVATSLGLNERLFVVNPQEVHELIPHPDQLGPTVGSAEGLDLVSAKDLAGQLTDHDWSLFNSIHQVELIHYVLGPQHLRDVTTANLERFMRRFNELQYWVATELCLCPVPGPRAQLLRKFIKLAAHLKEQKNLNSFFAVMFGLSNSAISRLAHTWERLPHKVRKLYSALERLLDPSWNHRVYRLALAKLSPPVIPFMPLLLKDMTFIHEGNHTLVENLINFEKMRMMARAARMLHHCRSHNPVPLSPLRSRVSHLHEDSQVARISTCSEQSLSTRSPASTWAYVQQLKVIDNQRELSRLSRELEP
Procedure: (§2) Series Expansion and EPAC1 vs EPAC2 Selectivity. GEF assay was used to further screen all newly synthesis analogues at 10 µM, to identify additional activating compounds to expand the series of EPAC1 agonists (FIG. 6). […] Having now identified an expanded exemplary series of compounds as potential EPAC1 activators the ability of 25e, 25f, 25g, 25n and 25u to activate EPAC1 and EPAC2 in cellular Rap1 activation assays (FIG. 7) were compared. For these U2OS cells transfected with either EPAC1 or EPAC2 (FIG. 7) was used. […] Densitometry was carried out on all immunoblots and the ratio of EPAC1 to EPAC2 activation was calculated and presented in a bar graph in FIG. 8.
Active Rap1 Pull-down. U2OS cells (from Professor Holger Rehmann, University of Utrecht) stably transfected with EPAC1 or EPAC2 were cultured in 6-well plates in DMEM, high glucose, supplemented with 10% (v/v) FBS, 1% (v/v) GlutaMAX, 1% (v/v) Penicillin-Streptomycin and 2 mg/l puromycin (to ensure selection of stable transfectants). 80% confluent cells were starved in culture medium with reduced FBS concentration (0.5 %) for 16 h and then stimulated for 10 min with either vehicle, 100 µM of studied compounds, or 50 µM of 2 in case of U2OS-EPAC1 or 100 µM of compound 4 for U2OS-EPAC2. Cells were then rinsed with ice-cold PBS and lysed in 0.5 ml cell lysis buffer (Cell Signaling Technologies) supplemented with 10 mM MgCl2 and 1 mM PMSF, followed by clearing the lysates by centrifugation. Cell lysates were incubated for 1 h (4° C., gentle agitation) with 40 µg GST-RalGDS-RBD immobilized on Glutathione Sepharose 4B (GE Healthcare) to selectively capture GTP-bound Rap1. Later on, the glutathione resin was separated from supernatant by centrifugation, washed three times with cell lysis buffer, then resuspended in 2x SDS sample loading buffer and denatured for 5 min at 95° C.
as §1

EPAC1 [2] = biological target: T2, EPAC1; assay: In vitro GEF screen (EPAC1 activation assay); type: biochemical; design: expressed in transfected cells; host or cells: U2OS cells (from Professor Holger Rehmann, University of Utrecht); conditions: 10 µM, FIG. 6
Procedure: FIGS. 6A-B. Identification of compounds including 25g (PW0381) 25q (PW0521) 25n (PW0577), 25u (PW0606), 25e (PW0624) and 25f (PW0625) as EPAC1 activators in an in vitro GEF screen. […] Selected compounds have been highlighted as indicated.
as §2

## Nc1ccc(S(=O)(=O)NC(=O)COc2ccc3ccccc3c2)cc1F [Compound 25f, N-((4-Amino-3-fluorophenyl)sulfonyl)-2-(naphthalen-2-yloxy)acetamide]
PKA
  PKA activation (VASP phosphorylation): unable to activate PKA
EPAC1-CNBD
  RFI (%) (relative fluorescence intensity), Table 4: 81 ± 8%
  IC50 values as EPAC1 binders (in words): low micromolar to sub-micromolar
EPAC1 [1]
  selectivity: ability to activate EPAC1 over EPAC2 (ratio of EPAC1 to EPAC2 activation): best selectivity
EPAC1 [2]
  EPAC1 activity in GEF assay: promote EPAC1 activity more effectively than 25g, 25n and 25q

## Cc1cc(Nc2ncccc2C(F)(F)F)cc(S(=O)(=O)NC(=O)COc2ccc3ccccc3c2)c1 [Compound 25u, N-((3-Methyl-5-((3-(trifluoromethyl)pyridin-2-yl)amino)phenyl)sulfonyl)-2-(naphthalen-2-yloxy)acetamide]
PKA
  PKA activation (VASP phosphorylation): unable to activate PKA
EPAC1-CNBD
  RFI (%) (relative fluorescence intensity), Table 4: 56 ± 6%
  IC50 values as EPAC1 binders (in words): low micromolar to sub-micromolar
EPAC1 [1]
  Rap1 activation in EPAC1 cells: roughly equivalent to the positive control
EPAC1 [2]
  EPAC1 activity in GEF assay: promote EPAC1 activity more effectively than 25g, 25n and 25q

## COc1ccc2ccc(OCC(=O)NS(=O)(=O)c3cc(C)cc(Br)c3)cc2c1 [Compound 25k, N-((3-Bromo-5-methylphenyl)sulfonyl)-2-((7-methoxynaphthalen-2-yl)oxy)acetamide]
EPAC1-CNBD
  RFI (%) (relative fluorescence intensity), Table 4: 29 ± 8%

## Cc1cc(-c2ccnn2C)cc(S(=O)(=O)NC(=O)COc2ccc3ccccc3c2)c1 [Compound 25t, N-((3-Methyl-5-(1-methyl-1H-pyrazol-5-yl)phenyl)sulfonyl)-2-(naphthalen-2-yloxy)acetamide]
EPAC1-CNBD
  RFI (%) (relative fluorescence intensity), Table 4: 34 ± 5%

## Cc1cc(C)cc(S(=O)(=O)NC(=O)COc2ccc3ccccc3c2)c1 [Compound 25a, N-((3,5-Dimethylphenyl)sulfonyl)-2-(naphthalen-2-yloxy)acetamide]
EPAC1-CNBD
  RFI (%) (relative fluorescence intensity), Table 4: 38 ± 2%
EPAC1-CNBD; from RFI at 10 µM
  fold binding potency increase versus compound 3: about 1.6 fold

## Cc1cc(-c2ccco2)cc(S(=O)(=O)NC(=O)COc2ccc3ccccc3c2)c1 [Compound 25s, N-((3-(Furan-2-yl)-5-methylphenyl)sulfonyl)-2-(naphthalen-2-yloxy)acetamide]
EPAC1-CNBD
  RFI (%) (relative fluorescence intensity), Table 4: 40 ± 1%

## Cc1cc(C)c(S(=O)(=O)NCCOc2ccc3ccccc3c2)c(C)c1 [Compound 12c, 2,4,6-Trimethyl-N-(2-(naphthalen-2-yloxy)ethyl)benzenesulfonamide]
EPAC1-CNBD
  EPAC1 binding potency / affinity in words: partial or complete loss of binding activity
  RFI (%) (relative fluorescence intensity), Table 3: 105 ± 4%

## Cc1cc(C)c(S(=O)(=O)NC(=O)COc2cccc3ccccc23)c(C)c1 [Compound 9b, N-(Mesitylsulfonyl)-2-(naphthalen-1-yloxy)acetamide]
EPAC1-CNBD
  EPAC1 binding potency / affinity in words: no significant improvement
  RFI (%) (relative fluorescence intensity), Table 1: 94 ± 5%

## COc1ccc(OC)c(S(=O)(=O)NC(=O)COc2ccc3ccccc3c2)c1 [Compound 25h, N-((2,5-Dimethoxyphenyl)sulfonyl)-2-(naphthalen-2-yloxy)acetamide]
EPAC1-CNBD
  RFI (%) (relative fluorescence intensity), Table 4: 72 ± 4%

## COc1ccc2ccc(OCC(=O)NS(=O)(=O)c3cc(Cl)cc(Cl)c3)cc2c1 [Compound 25l, N-((3,5-Dichlorophenyl)sulfonyl)-2-((7-methoxynaphthalen-2-yl)oxy)acetamide]
EPAC1-CNBD
  RFI (%) (relative fluorescence intensity), Table 4: 54 ± 6%

## O=C(COc1ccc2ccccc2c1)NS(=O)(=O)C1CCCCC1 [Compound 25aa, N-(Cyclohexylsulfonyl)-2-(naphthalen-2-yloxy)acetamide]
EPAC1-CNBD
  EPAC1 binding potency / affinity in words: complete loss of affinity
  RFI (%) (relative fluorescence intensity), Table 4: 81±3%

## O=C(COc1ccc2ccccc2c1)NS(=O)(=O)c1ccc([N+](=O)[O-])c(F)c1 [Compound 25e, N-((3-Fluoro-4-nitrophenyl)sulfonyl)-2-(naphthalen-2-yloxy)acetamide]
PKA
  PKA activation (VASP phosphorylation): unable to activate PKA
EPAC1-CNBD
  IC50 values as EPAC1 binders (in words): low micromolar to sub-micromolar
EPAC1 [1]
  Rap1 activation in EPAC1 cells: roughly equivalent to the positive control
  selectivity: ability to activate EPAC1 over EPAC2 (ratio of EPAC1 to EPAC2 activation): best selectivity
EPAC1 [2]
  EPAC1 activity in GEF assay: promote EPAC1 activity more effectively than 25g, 25n and 25q

## COc1cccc(S(=O)(=O)NC(=O)COc2ccc3ccccc3c2)c1 [Compound 25z, N-((3-methoxyphenyl)sulfonyl)-2-(naphthalen-2-yloxy)acetamide]
EPAC1-CNBD
  RFI (%) (relative fluorescence intensity), Table 4: 33 ± 3%

## COc1cc2c(cc1OC)CN(CC(=O)NS(=O)(=O)c1c(C)cc(C)cc1C)CC2 [Compound 9k, 2-(6,7-Dimethoxy-3,4-dihydroisoquinolin-2(1H)-yl)-N-(mesitylsulfonyl)acetamide]
EPAC1-CNBD
  RFI (%) (relative fluorescence intensity), Table 1: 102 ± 5%

## Cc1cc(C)c(S(=O)(=O)NC(=O)C(F)Oc2ccc3ccccc3c2)c(C)c1 (stereo not shown) [Compound 12e, 2-Fluoro-N-(mesitylsulfonyl)-2-(naphthalen-2-yloxy)acetamide]
EPAC1-CNBD
  RFI (%) (relative fluorescence intensity), Table 3: 82 ± 4%

— patent US20230150929A1, “SELECTIVE NON-CYCLIC NUCLEOTIDE ACTIVATORS FOR THE CAMP SENSOR EPAC1” (The Board of Regents of The University of Texas System, priority 2020, published 2023)
